The subject of test [1] is carotid artery rings (endothelial cells). The experiment in a line: Superoxide measurement (L012 luminescence) in carotid artery rings treated in vitro. The following applies: 1 μM latrunculin; artery samples under normal forward flow. Type of test: cell-based, swine. On the procedure: For superoxide measurements, carotid arteries (vessel segments 104) from both sides were quickly removed and placed into a heated (37° C.) chamber filled with HEPES buffered PSS containing (in mM): D-glucose, 5.5; KCl, 4.7; NaCl, 142; HEPES sodium salt, 2.7; MgSO4, 1.17; CaCl2, 2.79; at pH 7.4. For NADPH oxidase activity assays or protein expression measurements by western blot, the left and right carotid arteries were removed and saved in a −80° C. freezer until analysis.
The harvested vessels (vessel segments 104) were cut into small rings at approximately 3 mm in length in 37° C. HEPES PSS buffer. The rings were first transferred into […] with HEPES-PSS and incubated at 37° C. for 5 minutes. Various compounds [cytochalason D, latrunculin B, jasplakinolide, and phorbol 2-myrisate 13-acetate (PMA)] were then added into each well for treatment. The L012 (100 μM) was added last and the luminescence was recorded for 60 minutes at 1 minute intervals using a plate reader from Perkin Elmer (En vision Xcite Multilabel Reader, Perkin Elmer, Shelton, Conn.) at ultra-luminecent mode. The total reaction volume was 200 μl. After each recording, the sample rings were air dried and weighed. Each condition was tested in triplicate. To remove the endothelial cells, the vessel ring was gently rubbed against the tip of a pair of forceps.
Basal superoxide production was detected in the carotid artery (vessel segment 104) samples obtained from control animals with forward blood flow as shown in FIG. 2A. Rings were incubated with or without treatments of cytochalasin D (cyt D), latrunculin (Latru) or jasplakinolide (Jasp) and the superoxide production were recorded using plate reader at ultrasensitive mode for luminescence to generate the results shown in FIG. 2A. The luminescence recorded from rings without treatment was considered at base level and taken as 100%. The luminescence recorded under other conditions was expressed as percentage of base level. The superoxide production induced by PMA was used as positive control as identified in FIG. 2B. Each condition was tested in triplicate from each animal. The significance of increased superoxide production was test using ANOVA (p=0.004 for cytochalasin D, n=10 and p=0.044 for Latrucillin, n=3), and the data are mean±1SD.

Test [2] deals with porcine femoral artery preparation. The experiment in a line: NO metabolite (nitrite) production in perfused porcine femoral artery preparation, forward and reverse flow. The conditions noted are these: tempol added to perfusate. On the procedure: A purfusate was passed through an in vitro porcine femoral artery preparation in the forward and reverse flow directions and the levels of NO metabolite (nitrite) were measured at various flowrates in the forward and reverse directions. Thereafter, tempol was added to the perfusate and the levels of NO metabolite (nitrite) were again measured at various flowrates in the forward and reverse directions. […] The asterisk denotes statistical significance by ANOVA analysis between groups at the respective flows (P<0.05).

Take `C/C1=C/C(=O)O[C@@H]2C[C@@H](CC[C@H](C)/C=C\CC1)O[C@@](O)([C@@H]1CSC(=O)N1)C2` [latrunculin, latrunculin B]: the “increase of superoxide production vs untreated samples” value in test [1] was approximately 2 fold.

`CC1(C)CC(O)CC(C)(C)N1[O]` [tempol, 4-hydroxy-2,2,6,6-tetramethyl-4-piperidine-N-oxyl]: the “NO production (NO metabolite nitrite)” value was “did not cause a statistically significant increase” in test [2] (forward flow) and “did significantly increase” in test [2] (reverse flow, P<0.05).

Source of the values: patent publication US20130085109A1, “METHODS OF CARDIOVASCULAR PATIENT TREATMENT USING SUBSTANCES SUFFICIENT TO REDUCE ACTIN DEPOLYMERIZATION” (priority 2008, published 2013).
